What is called IC50 is the concentration at which inhibition is half-maximal.

Our source for the IC50 values is ChEMBL document CHEMBL1142451, “The molecular interactions of buspirone analogues with the serotonin transporter” (Bioorg Med Chem, 2008).

Chain of Sodium-dependent serotonin transporter (Homo sapiens, UniProt P31645) (P31645 whole entry): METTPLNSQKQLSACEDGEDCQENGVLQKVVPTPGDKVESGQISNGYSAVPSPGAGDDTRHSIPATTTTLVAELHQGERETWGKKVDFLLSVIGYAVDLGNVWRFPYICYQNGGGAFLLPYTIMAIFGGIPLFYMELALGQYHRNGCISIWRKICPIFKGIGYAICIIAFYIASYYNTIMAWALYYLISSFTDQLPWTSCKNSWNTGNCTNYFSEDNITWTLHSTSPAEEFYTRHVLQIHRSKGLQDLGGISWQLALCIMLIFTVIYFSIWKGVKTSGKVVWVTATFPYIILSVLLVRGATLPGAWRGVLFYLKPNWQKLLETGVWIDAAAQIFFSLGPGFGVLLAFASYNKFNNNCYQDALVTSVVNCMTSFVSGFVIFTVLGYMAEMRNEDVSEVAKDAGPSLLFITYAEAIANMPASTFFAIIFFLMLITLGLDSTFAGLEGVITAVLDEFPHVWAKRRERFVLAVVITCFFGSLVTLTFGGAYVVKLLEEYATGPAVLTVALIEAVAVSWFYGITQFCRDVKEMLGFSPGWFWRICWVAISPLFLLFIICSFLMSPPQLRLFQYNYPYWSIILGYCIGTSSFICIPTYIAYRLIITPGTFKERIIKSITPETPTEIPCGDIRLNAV

For the first assay, the target named is Sodium-dependent serotonin transporter (Rattus norvegicus, UniProt P31652). Kind of assay: Displacement of [3H]5-HT from SERT in rat cerebral cortex synaptosome membrane. The class given is tissue-based, Brain. Background: Displacement assays read how much labelled ligand stays bound in the presence of the test substance.
Chain of Sodium-dependent serotonin transporter (Rattus norvegicus, UniProt P31652) (P31652 whole entry): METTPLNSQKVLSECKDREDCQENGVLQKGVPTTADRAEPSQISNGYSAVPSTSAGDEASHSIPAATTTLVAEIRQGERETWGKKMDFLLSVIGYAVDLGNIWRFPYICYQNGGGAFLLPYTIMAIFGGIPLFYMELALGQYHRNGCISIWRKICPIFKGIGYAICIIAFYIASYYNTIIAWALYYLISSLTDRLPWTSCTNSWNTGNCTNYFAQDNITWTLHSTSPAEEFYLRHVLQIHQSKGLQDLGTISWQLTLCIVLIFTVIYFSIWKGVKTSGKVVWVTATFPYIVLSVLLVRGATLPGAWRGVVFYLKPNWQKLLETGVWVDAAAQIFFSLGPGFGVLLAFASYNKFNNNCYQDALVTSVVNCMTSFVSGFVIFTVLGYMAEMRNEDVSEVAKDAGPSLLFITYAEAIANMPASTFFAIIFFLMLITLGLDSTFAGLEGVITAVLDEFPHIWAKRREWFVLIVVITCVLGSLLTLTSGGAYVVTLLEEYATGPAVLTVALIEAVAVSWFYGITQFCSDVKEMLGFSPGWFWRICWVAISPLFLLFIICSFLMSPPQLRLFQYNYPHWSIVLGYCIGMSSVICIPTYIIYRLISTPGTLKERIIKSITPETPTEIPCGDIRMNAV
`CC1(C)CC(=O)N(CCCCN2CCN(c3ccc4ccccc4n3)CC2)C(=O)C1` registered an IC50 of 146 nM. In other words, the sub-micromolar range. On to `O=C1CC2(CCCC2)CC(=O)N1CCCCN1CCN(c2ccc3ccccc3n2)CC1`, for which the IC50 came to 112 nM. Same read-out and setting: in the case of `O=C1c2ccccc2C(=O)N1CCCCN1CCN(c2ccc3ccccc3n2)CC1` it was 95 nM; in that of `CC1CN(c2ccc3ccccc3n2)CCN1CCCCN1C(=O)c2ccccc2C1=O` (stereo not drawn), 33 nM; in that of `CC1CN(c2ccc3ccccc3n2)CCN1CCCCN1C(=O)CC2(CCCC2)CC1=O` (stereo not drawn), 75 nM.

The next assay concerns the target Sodium-dependent serotonin transporter (Homo sapiens, UniProt P31645). The assay is described as follows: Displacement of [3H]5-HT from human SERT.
`CC1CN(c2ccc3ccccc3n2)CCN1CCCCN1C(=O)c2ccccc2C1=O` (stereo not drawn) showed an IC50 of 8 nM. `CC1CN(c2ccc3ccccc3n2)CCN1CCCCN1C(=O)CCCC1=O` (stereo not drawn) showed an IC50 of 50 nM. Same read-out and setting: in the case of `CC1CN(c2ccc3ccccc3n2)CCN1CCCN1C(=O)c2ccccc2C1=O` (stereo not drawn) it was 80 nM.
